According to US4745100A, “Stimulation of tear secretion” (Eye Research Institute of Retina Foundation, priority 1986, dated 1988):
Entries after “also recorded” stand apart in the source; their conditions may differ. No end group written: not given here.

Tests used:
rabbits with dry eyes = test: Tear film osmolality in dry eye rabbit after topical test drop; type: in vivo; settings: 10 μl topical drop
Method: In vivo examples of the invention were conducted on rabbits with dry eyes. The dry eye disorder is created by surgically closing the duct that carries fluid from the main lacrimal gland to the tear film and surgically removing the nictitans and harderian glands. This leaves intact only the accessory glands that lie on the ocular surface. These rabbits develop increased tear film osmolality soon after the operation, a finding that is understood to be due to decreased tear production, and that is characteristic of dry eye. It is recognized that results of ophthalmologic tests using rabbits has close correlation with humans, and therefore the results carry over to humans.
The effect of topically applied isotonic buffer solution with and without VIP on tear film osmolality was studied in the dry eye rabbit. All test drops were ten μl in volume and were applied in each case six minutes after the instillation of proparacaine, which anesthetizes the surface of the eye and prevents reflex tearing. Tear samples were taken with a micropipette system, in the manner described in the article entitled "Osmolarity of Tear Microvolumes in Keratoconjunctivitis Sicca", by Gilbard et al, Arch Ophthalmol 96:677, 1978. Osmolality was measured by freezing-point depression.
The following protocol was used for each drop tested. Six minutes prior to instillation of the test drop proparacaine was instilled. At zero time a tear sample was taken for measurement of osmolality. At one minute the test drop was instilled. At six and at sixteen minutes, tear samples were taken for osmolality measurements. The procedure for instilling each test drop is that the drop of buffered solution was first instilled in the dry eye and measurements were taken followed by a drop of buffered solution containing VIP. The following test drops were instilled: (1) buffer solution, (2) buffer solution containing 2×10^-8 M VIP, (3) buffer solution, (4) buffer solution containing 2×10^-7 M VIP, (5) buffer solution, (6) buffer solution containing 2×10^-6 M VIP. The results are shown in FIGS. 1A, 1B, and 1C and FIGS. 2A, 2B, and 2C, where FIGS. 1 and 2 each represent the results obtained from the same rabbit.
In separate experiments, the effect of topically applied isotonic buffer solution with or without glucagon or secretin on tear film osmolality was studied in dry eye rabbits. All test drops were ten microliters in volume. Tear osmolality was measured one minute prior to drop instillation and five and fifteen minutes after drop instillation. A drop of buffered solution was first instilled in the dry eye and measurements were taken followed by a drop of buffered solution containing glucagon or secretin, depending on the test.

[1] = additives needed; cited from earlier work
[2] = system: main (orbital) lacrimal gland; settings: administered intravenously to rabbits; cited from earlier work
lacrimal gland = settings: administered intra-arterially; cited from earlier work
dry eye rabbits = test: Elimination of tracer Tc99m (sodium pertechnetate) from the tear film of dry eye rabbits; type: in vivo, rabbit; settings: VIP 2×10^-6 M in 10 μl radioactive buffer
Method: In a separate example, dry eye rabbits were studied by examining the rate of elimination of a tracer substance technectium, Tc^99m, as sodium pertechnetate from the tear film. Essentially equivalent counts of Tc^99m were placed in ten microliters of, in some instances, a buffer solution to serve as a control, and in other instances, a buffer solution containing 2×10^-6 M VIP. Radioactivity present in the tear film was measured over contiguous fifteen second periods for thirty minutes with a gamma camera, and the measurements stored on a computer. The following protocol was used: Rabbits were anesthetized with IM rompun and ketamine. At zero time proparacaine was applied. At five minutes, the radioactive buffer with VIP was instilled in the eye. Radioactivity present in the tear film was then recorded as described. After thirty minutes, proparacaine was again instilled in the eye and the procedure repeated with radioactive buffer alone. […] This increased rate of tracer washout is understood to be indicative of increased tear secretion. In a second similar experiment, the effect of VIP was first tested, and then radioactive buffer alone, and then the effect of VIP again.

[3] = system: rat exorbital lacrimal gland; settings: cited from earlier work

For glucagon, the “effect on tear film osmolality versus buffer solution alone” value (rabbits with dry eyes; glucagon 2×10^-6, 2×10^-5, 2×10^-4 M, 5 and 15 min after drop, FIG. 6) is given as “lowers tear film osmolality more effectively than buffer solution alone; also recorded: dose-dependent decrease in tear film osmolality” and the solubility [1] is given as “requires the additives glycerin and lactose to render it soluble”.

With secretin the “effect on tear film osmolality versus buffer solution alone” value (rabbits with dry eyes; secretin 2×10^-7, 2×10^-6, 2×10^-5 M, 5 and 15 min after drop, FIG. 7) was “lowers tear film osmolality more effectively than buffer solution alone; also recorded: dose-dependent decrease in tear film osmolality”.

In the case of “vasoactive intestinal peptide (HSDAVFTDNYTRLRKQMAVKKYLNSILN; ends and bridges not checked; UniProt P01282 125-152, looked up) [VIP]”, the “effect on tear film osmolality versus placebo, same experiment as CCK” value (rabbits with dry eyes; VIP 2×10^-6 M, FIGS. 3A, 3B) is listed as “decreased tear film osmolality more effectively than a placebo in one of two trials”, the “effect on tear film osmolality versus buffer solution alone” value (rabbits with dry eyes; VIP 2×10^-8, 2×10^-7, 2×10^-6 M, samples at 6 and 16 min, FIGS. 1 and 2) is listed as “lowers the tear film osmolality more effectively than buffer solution alone; also recorded: dose-dependent decrease in tear film osmolality” and the “main (orbital) lacrimal gland secretion” value [2] is listed as “can stimulate main (orbital) lacrimal gland secretion”. The lacrimal gland secretion (lacrimal gland) was “stimulate lacrimal gland secretion”, the “slope of the elimination curve of Tc99m from tear film, first 15 minutes” value (dry eye rabbits; topical, dry eye rabbit, placebo -0.82, FIG. 4) was -1.65 and the “slope of the elimination curves versus radioactive buffer alone, second experiment” value (dry eye rabbits; two VIP tests, FIG. 5) was “substantially steeper than for radioactive buffer alone”. For the same molecule, the “protein secretion in vitro” value [3] was “stimulate protein secretion in vitro”.

B1: Cholecystokinin (peptide, UniProt P06307 21-115, looked up)
Cholecystokinin: QPVPPADPAGSGLQRAEEAPRRQLRVSQRTDGESRAHLGALLARYIQQARKAPSGRMSIVKNLQNLDPSHRISDRDYMGWMDFGRRSAEEYEYPS
modifications: Cholecystokinin
notes: gastrointestinal hormone tested topically as comparison
In the case of B1, the “effect on tear osmolality versus placebo” value (rabbits with dry eyes; CCK 2×10^-4 M, FIG. 3B) is listed as “did not lower tear osmolality more effectively than a placebo” and the lacrimal gland secretion (lacrimal gland) is listed as “stimulate lacrimal gland secretion”.
